Patent US4540581A, “Topical nonsteroidal anti-inflammatory compositions and uses” (Bristol-Myers Company, priority 1984, dated 1985)
Several values for one entry are separate records, joined by “and”; a condition that tells them apart may be missing. Equal values may be shown once. Where a name gives a salt, the structure may show the parent alone. Blank lines part the entries; values can stand above or below the molecule they belong to.

What was measured:
[1] = system: Croton Oil-Induced Mouse Ear Edema; experiment: Croton oil-induced ear edema in mice (Example 1); assay type: in vivo; conditions: for % Inhibition of Croton Oil-Induced Mouse Ear Edema: topical, 6 h, mean of 10 to 15 animals; for Reduction in ear edema in the croton oil assay (in words): zinterol at 1.6 and 0.2 w/v percent, bitolterol at 1.6 w/v percent; for Topical Anti-Inflammatory Activity, Croton Oil Assay (Edema): summary grade of % inhibition
Experimental: In the croton oil assay, (which is a standard test, which is fully described in Tonelli et al, Endocrinology, vol. 77, pp. 625-634, 1965, and which is hereby incorporated herein by reference) topical application of four % croton oil in ethanol (v/v) to the ears of mice causes intercellular edema, vasodilation, and polymorphonuclear leucocyte infiltration into the dermis, leading to an increase over normal ear weight of about 70 to 100%. The inflammatory response is nearly maximal by 6 hours. In the croton oil tests, four volume % croton oil in ethanol was applied to the inner aspect of both ears of each test mouse, and various test materials in vehicle systems were applied to the outer aspect of the ears immediately following croton oil application. Control animals were exposed either to croton oil alone or to croton oil followed by the vehicle alone.
Six hours after exposure to croton oil and/or test material, animals were sacrificed; and punch biopsies of the ears were weighed and compared to the respective vehicle control.
Compounds were tested in simple solutions, including dimethylacetamide/acetone/ethanol (i.e., DMAC/A/E v/v 40/30/30) and N-methyl pyrrolidone/ethanol (NMP/E v/v 50/50). Comparative controls were chosen based on their known activity in each of the three above-described animal assays and included in all three tests (in Examples 1, 2 and 3) hydrocortisone valerate (HCV) in the croton oil and oxazolone assays, indomethacin (which is a potent aspirin-like nonsteroidal anti-inflammatory agent) in the UVB test, and salbutamol (a β2 agonist, discussed above in the Background of the Invention).
(§1) The percent inhibition of induced mouse ear edema (or erythema) for each of the three models (in Examples 1, 2 and 3) is calculated: [formula]

[2] = system: croton oil-induced ear edema in mice; experiment: Croton oil-induced ear edema in mice, compounds IV and V vs zinterol (Example 4); assay type: in vivo, Swiss albino mice; conditions: for % Reduction of Ear Edema Weight as Compared to Control Ears, Mean ± S.D.: mean of studies; for % Reduction of Ear Edema Weight as Compared to Control Ears / Anti-inflammatory activity in croton oil-induced ear edema (in words): topical; for % Reduction of Ear Edema Weight as Compared to Control Ears: 6 h, single study; for Anti-inflammatory activity in croton oil-induced ear edema (in words): NMP/ETOH
Experimental: In these tests, the anti-inflammatory effect of these three β2 agonists when applied topically to the croton oil-induced ear edema in mice was investigated. In these tests, 50 μl of 4 weight percent croton oil in ethanol was applied to the inner aspects of the right and the left ears of Swiss albino mice, followed immediately by 25 μof suspensions of 0.02, 0.2, and 0.8 weight percent of compound IV and compound V in N-methylpyrrolidone/Ethyl alcohol (i.e., NMP/ETOH) applied to the outer aspect of each ear. Croton oil treated and nontreated control groups were included. These control groups are included in the data as described hereinbefore.
Six hours later, the animals were sacrificed with CO2 gas, and a 5/16 inch punch biopsy of each ear was taken and weighed immediately.
The anti-inflammatory effects for the test agents were assessed by a comparison of the biopsy weights of the test and control groups.

[3] = system: Oxazolone-Induced Edema in Mouse Ear; experiment: Oxazolone-induced ear edema in mice (Example 2); assay type: in vivo; conditions: for % Inhibition of Oxazolone-Induced Edema in Mouse Ear: topical, mean of 10 to 15 animals; for Topical Anti-Inflammatory Activity, Oxazolone Assay (Edema): summary grade of % inhibition
Excerpt: Oxazolone-induced contact sensitization in mice is characterized by edema and cellular infiltration, primarily of the monocyte type, with close to 100% increase in the mouse ear weight.

[4] = system: UVB-Induced Erythema in Guinea Pig; experiment: UVB-induced erythema in guinea pigs (Example 3); assay type: in vivo; conditions: for Topical Anti-Inflammatory Activity, UV-B Assay (Erythema): summary grade of % inhibition; for Activity in the UVB assay (in words): zinterol 3 and 1.6 weight percent, indomethacin 1 weight percent
Experimental: as §1
In the UVB test, cutaneous erythema is induced in guinea pigs.This test is a standard test widely used for testing anti-inflammatory agents and is fully described in K. F. Swingle, "Evaluation for Anti-Inflammatory Activity", in Anti-Inflammatory Agents, vol. 2, ed. by Scherrer and Whitehouse, pp. 34-122, London: Academic Press, 1974, hereby incorporated herein by reference. In the UVB model, the test material was applied topically to the irradiated sites immediately following exposure to UVB. Erythema was scored on a 0 to 4 scale, 3 and 6 hours after irradiation.

[5] = Solubility of active ingredient in vehicles; assay type: physicochemical
[6] = 1.6 w/v %, in NMP/ETOH (50/50), salbutamol in Ethanol/H2O (50/50)
[7] = 0.02 % weight/volume in NMP/ETOH
[8] = 0.2 % weight/volume in NMP/ETOH
[9] = 0.8 % weight/volume in NMP/ETOH
[10] = 0.2 w/v %, in DMAC/acetone/ethanol (40:30:30)
[11] = 1.6 w/v %, in DMAC/acetone/ethanol (40:30:30)
[12] = 3 w/v %, in N-methylpyrrolidone:ethanol (1:1)
[13] = 3 w/v %, N-methyl 2-pyrrolidone/ethanol (50/50), 3 h, salbutamol in Ethanol/H2O or NMP/H2O
[14] = 3 w/v %, N-methyl 2-pyrrolidone/ethanol (50/50), 6 h, salbutamol in Ethanol/H2O or NMP/H2O

Compound: Cc1ccc(C(=O)Oc2ccc(C(O)CNC(C)(C)C)cc2OC(=O)c2ccc(C)cc2)cc1 (centres unmarked) [Bitolterol, bitolterol]
% Inhibition of Croton Oil-Induced Mouse Ear Edema ([1]; 0.2 w/v %, in NMP/ETOH (50/50)): 42% and 25% and 34%
% Inhibition of Croton Oil-Induced Mouse Ear Edema [1, 6]: 61%
Reduction in ear edema in the croton oil assay (in words) [1]: good to moderate reductions in ear edema

Compound: CC(Cc1c[nH]c2ccccc12)NCC(O)c1ccc(O)c(NS(C)(=O)=O)c1 (centres unmarked) [Compound IV]
% Reduction of Ear Edema Weight as Compared to Control Ears, Mean ± S.D. [2, 7]: 18.1 ± 10.6%
% Reduction of Ear Edema Weight as Compared to Control Ears [2, 8]: 32.9% and 48.7% and 49.4%
% Reduction of Ear Edema Weight as Compared to Control Ears, Mean ± S.D. [2, 8]: 43.7 ± 9.3%
% Reduction of Ear Edema Weight as Compared to Control Ears [2, 9]: 61.6% and 53.4%
% Reduction of Ear Edema Weight as Compared to Control Ears, Mean ± S.D. [2, 9]: 57.5 ± 5.8%
Anti-inflammatory activity in croton oil-induced ear edema (in words) [2]: comparable to that of zinterol

Compound: CC(C)(Cc1c[nH]c2ccccc12)NCC(O)c1ccc(O)c(NS(C)(=O)=O)c1 (centres unmarked) [Compound V]
% Reduction of Ear Edema Weight as Compared to Control Ears [2, 7]: 29.9%
% Reduction of Ear Edema Weight as Compared to Control Ears [2, 8]: 53.5%
% Reduction of Ear Edema Weight as Compared to Control Ears [2, 9]: 69.9%
Anti-inflammatory activity in croton oil-induced ear edema (in words) [2]: comparable to that of zinterol

Compound: CCCCC(=O)O[C@]1(C(=O)CO)CC[C@H]2[C@@H]3CCC4=CC(=O)CC[C@]4(C)[C@H]3[C@@H](O)C[C@@]21C [HCV, hydrocortisone valerate]
% Inhibition of Croton Oil-Induced Mouse Ear Edema ([1]; 0.2 w/v %, in DMAC/Acetone/ETOH, salbutamol in Ethanol/H2O (50/50), minus = potentiation): 25% and 38% and 34%
% Inhibition of Croton Oil-Induced Mouse Ear Edema ([1]; 0.2 w/v %, in NMP/ETOH (50/50)): 71% and 62% and 64% and 67% and 73%
% Inhibition of Croton Oil-Induced Mouse Ear Edema [1, 6]: 70% and 71%
Topical Anti-Inflammatory Activity, Croton Oil Assay (Edema) [1]: +++ (+++ = high (60%))
% Inhibition of Oxazolone-Induced Edema in Mouse Ear [3, 10]: 16%
% Inhibition of Oxazolone-Induced Edema in Mouse Ear [3, 11]: 36% and 27%
% Inhibition of Oxazolone-Induced Edema in Mouse Ear [3, 12]: 39%
Topical Anti-Inflammatory Activity, Oxazolone Assay (Edema) [3]: + (+ = Slight (30-44))

Compound: COc1ccc2c(c1)c(CC(=O)O)c(C)n2C(=O)c1ccc(Cl)cc1 [Indomethacin, indomethacin]
Topical Anti-Inflammatory Activity, Croton Oil Assay (Edema) [1]: + (+ = Slight (30-44))
Topical Anti-Inflammatory Activity, Oxazolone Assay (Edema) [3]: + (+ = Slight (30-44))
% Change in UVB-Induced Erythema in Guinea Pig ([4]; 1%, DMAC/acetone/ethanol (40/30/30), 3 h): 72% and 54% and 82%
% Change in UVB-Induced Erythema in Guinea Pig ([4]; 1%, DMAC/acetone/ethanol (40/30/30), 6 h): 43% and 48% and 54%
% Change in UVB-Induced Erythema in Guinea Pig ([4]; 1%, N-methyl 2-pyrrolidone/ethanol (50/50), 3 h): 100% and 93% and 91%
% Change in UVB-Induced Erythema in Guinea Pig ([4]; 1%, N-methyl 2-pyrrolidone/ethanol (50/50), 6 h): 74% and 85% and 87%
Topical Anti-Inflammatory Activity, UV-B Assay (Erythema) [4]: +++ (+++ = high (60%))
Activity in the UVB assay (in words) [4]: good to very good activity

Compound: CC(C)(C)NCC(O)c1ccc(O)c(CO)c1 (centres unmarked) [Salbutamol, salbutamol]
Topical Anti-Inflammatory Activity, Croton Oil Assay (Edema) [1]: + (+ = Slight (30-44))
% Inhibition of Oxazolone-Induced Edema in Mouse Ear [3, 10]: -1% and -9%
% Inhibition of Oxazolone-Induced Edema in Mouse Ear [3, 11]: 2% and 0%
% Inhibition of Oxazolone-Induced Edema in Mouse Ear ([3]; 1.6 w/v %, in N-methylpyrrolidone:ethanol (1:1)): 21% and 28%
% Inhibition of Oxazolone-Induced Edema in Mouse Ear [3, 12]: 31%
Topical Anti-Inflammatory Activity, Oxazolone Assay (Edema) [3]: + (+ = Slight (30-44))
% Change in UVB-Induced Erythema in Guinea Pig ([4]; 1.6 w/v %, DMAC/acetone/ethanol (40/30/30), 3 h, salbutamol in Ethanol/H2O or NMP/H2O): 9%
% Change in UVB-Induced Erythema in Guinea Pig ([4]; 1.6 w/v %, DMAC/acetone/ethanol (40/30/30), 6 h, salbutamol in Ethanol/H2O or NMP/H2O): +4%
% Change in UVB-Induced Erythema in Guinea Pig [4, 13]: 42% and 45%
% Change in UVB-Induced Erythema in Guinea Pig [4, 14]: 32% and 25%
Topical Anti-Inflammatory Activity, UV-B Assay (Erythema) [4]: + (+ = Slight (30-44))

Compound: CC(C)(Cc1ccccc1)NCC(O)c1ccc(O)c(NS(C)(=O)=O)c1 (centres unmarked) [Zinterol, 2-hydroxy-5'-[1-hydroxy-2-(2-methyl-1-phenyl-2-propylamino)ethyl]methanesulfonanilide]
Topical cutaneous anti-inflammatory activity in the croton oil assay (in words) ([1]; 1.6 w/v %): high topical cutaneous anti-inflammatory activity
% Inhibition of Croton Oil-Induced Mouse Ear Edema ([1]; 1.6 w/v %, in DMAC/Acetone/ETOH, salbutamol in Ethanol/H2O (50/50)): 69% and 50% and 81% and 66% and 63% and 48% and 45%
% Inhibition of Croton Oil-Induced Mouse Ear Edema [1, 6]: 69% and 63% and 70% and 48% and 73%
Topical Anti-Inflammatory Activity, Croton Oil Assay (Edema) [1]: +++ (+++ = high (60%))
Reduction in ear edema in the croton oil assay (in words) [1]: good to moderate reductions in ear edema
Reduction in ear edema in the oxazolone assay (in words) ([3]; 3 and 1.6 weight percent): slight reduction in ear edema with no dose-related effect
% Inhibition of Oxazolone-Induced Edema in Mouse Ear [3, 12]: 39%
Topical Anti-Inflammatory Activity, Oxazolone Assay (Edema) [3]: + (+ = Slight (30-44))
% Change in UVB-Induced Erythema in Guinea Pig ([4]; 1.6 w/v %, N-methyl 2-pyrrolidone/ethanol (50/50), 3 h): 9%
% Change in UVB-Induced Erythema in Guinea Pig ([4]; 1.6 w/v %, N-methyl 2-pyrrolidone/ethanol (50/50), 6 h): 26%
% Change in UVB-Induced Erythema in Guinea Pig [4, 13]: 48% and 75%
% Change in UVB-Induced Erythema in Guinea Pig [4, 14]: 18% and 25%
Topical Anti-Inflammatory Activity, UV-B Assay (Erythema) [4]: + (+ = Slight (30-44))
Activity in the UVB assay (in words) [4]: slight to moderate activity with no consistent dose effect
% Reduction of Ear Edema Weight as Compared to Control Ears [2, 7]: 14.2% and 23.6%
% Reduction of Ear Edema Weight as Compared to Control Ears, Mean ± S.D. [2, 7]: 18.9 ± 6.6%
% Reduction of Ear Edema Weight as Compared to Control Ears [2, 8]: 39.5% and 66.2% and 46.6%
% Reduction of Ear Edema Weight as Compared to Control Ears, Mean ± S.D. [2, 8]: 50.8 ± 13.8%
% Reduction of Ear Edema Weight as Compared to Control Ears [2, 9]: 68.2% and 56.6%
% Reduction of Ear Edema Weight as Compared to Control Ears, Mean ± S.D. [2, 9]: 62.4 ± 8.2%

solubility ([5]; organic solvent or mixture, cream vehicle, read-out: Amount that will dissolve in creams): ≤ 7000 µg/mL
Solubility (in words) ([5]; water): water soluble
Compound: CC(C)(Cc1ccccc1)NCC(O)c1ccc(O)c(NS(C)(=O)=O)c1 (centres unmarked) [zinterol hydrochloride]
